The text below walks through data of patent US20110190249A1, “THERAPEUTIC METHODS AND USES OF SAPOGENINS AND THEIR DERIVATIVES” (PHYTOPHARM PLC, priority 2002, published 2011).

Marks after values point to notes of the source that are not given here.

Assay [1] concerns rat primary cortical neurones. Nature of the assay: Prevention of glutamate-induced neurodegeneration (LDH release), pre-treatment. The following applies: 30 nM, given 24 h before glutamate; LDH 24 h after glutamate; control = 100. Type of assay: cell-based. The protocol:
The objective of this study was to examine the effects of sarsasapogenin, episarsasapogenin cathylate, episarsasapogenin, epismilagenin and smilagenin on the survival of rat primary cortical neurones exposed to glutamate, which is known to induce neuro degeneration.
Rat cortical neurones were cultured for 10 days; at day 10 the medium was changed to a serum-free defined medium. On day 12, 24 hours before glutamate exposure, cultures were washed and medium was replaced with fresh medium containing positive control (β-oestradiol), test compounds (sarsasapogenin, episarsasapogenin cathylate, episarsasapogenin, epismilagenin and smilagenin) or vehicle control (DMSO, 0.25%) or diosgenin as negative control.
On day 13, cultures were exposed to glutamate. After the incubation period, the cultures were washed with and placed in fresh medium, supplemented with relevant compounds or vehicle to evaluate their protective effects, 24 h after glutamate exposure.
(§1) Neuronal cell survival was evaluated by measuring lactate dehydrogenase (LDH) activity released in the media 24 h after test compound treatment or glutamate+test compound exposure, using the CytoTox 96 non-radioactive kit and quantitated by measuring wavelength absorbance at 450 nm.
For orientation: LDH in the medium is a marker of cell lysis.

In assay [2] the test system is Sprague Dawley rats injected with amyloid β1-40 and ibotenic acid. Nature of the assay: Step-through test in amyloid β + ibotenic acid rat model. In kind it is in vivo. The following applies: 18 mg/kg/day gastric tube, two months; errors in 5 min; model 4.00 ± 2.40, control 0.60 ± 0.70. The protocol: (§2) An in vivo model of Alzheimer's disease was used to model neurodegeneration. In this model the neurotoxic agents (amyloid β and ibotenic acid) are injected into the brain of the rat. This leads to neuronal loss, receptor loss and cognitive impairment. […] In addition the co-injection of amyloid β with a small amount of ibotenic acid into the rat hippocampus synergistically produces neuronal loss with infiltration of glial cells not only adjacent but also far from the injected site (Morimoto et al., 1998: Neuroscience, 84, 479-487).
(§3) Our studies used the method of Morimoto (Morimoto et al., 1998: Neuroscience, 84, 479-487) with some modifications (unilateral instead of bilateral injection). Three months old, Sprague Dawley rats, were randomly divided into different groups. Injection of amyloid β1-40 and ibotenic acid (both from Sigma) was accomplished by means of a stereotaxic instrument (Stoelting Co.) and the coordinates were AP=−0.5 mm […], L=−2.8 mm […], H=−7.0 mm (ventral to dura). The dose for each rat was amyloid β1-40 (4 μg) and ibotenic acid (1 μg) in 1 μl of saline. The injection was completed in 20 min, and the needle was withdrawn 10 min later. Then the skin was sutured.
(§4) The 8 groups were: • Operated control injected with normal saline (control) • Model (control injected with amyloid β+ibotenic acid) • Model+Episarsasapogenin cathylate (18 mg/kg/day)* • Model+Sarsasapogenin cathylate (18 mg/kg/day)* • Model+Episarsasapogenin ethylsuccinate (18 mg/kg/day) (comparison) • Model+Episarsasapogenin (18 mg/kg/day)* • Model+Epismilagenin (18 mg/kg/day)* • Model+Diosgenin (i.e. negative control, 18 mg/kg/day)
(§5) Episarsasapogenin cathylate, sarsasapogenin cathylate, episarsasapogenin ethylsuccinate (comparison compound), episarsasapogenin, epismilagenin and diosgenin (all at a dosage of 18 mg/kg/day) were administered to animals as stable suspensions in CMC—Na (0.5%) once daily through a gastric tube. The control and the model group were given the same volume of CMC—Na (0.5%) once daily. The drugs and vehicles were given for a period of two months, starting 20 days before operation.
Step-Through Test: learning and memory. The effect of test compounds on learning and memory was assessed using the step-through test. A 60×15×15 cm box, divided into 2 equally sized rooms, one dark room with copper rod base, which was electrically charged (40 V ac) when in use, while the other was a light room but not electrically charged. Between the two rooms there is an opening (hole) for the rat to go through. The experiment is carried out for each rat on two consecutive days. The first day is for training; when the rat is adapted in the box for the first 3 min, then put in the light room, with its back toward the hole, and the copper rods of the dark room are charged for 5 min. The second day is for testing, when the number of crosses in 5 min are recorded. Improvements in memory are signalled by a reduction in the number of crosses.

Assay [3] concerns muscarinic acetylcholine receptor. Description: Brain M receptor density (3H-QNB) in amyloid β + ibotenic acid rat model. In kind it is in vivo. The following applies: 18 mg/kg/day gastric tube, two months; model 713 ± 48, control 859 ± 101. The protocol: as §2, §3, §4, §5
Muscarinic acetylcholine receptor density was assessed. The brain samples were homogenised, centrifuged, and the pellet of centrifugation at 27000×g was re-homogenised and used for measurement. The concentration of ^3H-QNB was chosen at the saturation range. After incubation and separation, the bound portion was measured by liquid scintillation counter.

Assay [4] concerns rat primary cortical neurones. Description: Reversal of glutamate-induced neurodegeneration (LDH), treatment after glutamate exposure. In kind it is cell-based. The conditions noted are these: LDH after 24 h, control = 100. The protocol:
as §1
As above mentioned, exposure of rat primary cortical cultures to glutamate (100 μM; 10 min) caused an increase in lactate dehydrogenase (LDH) activity measured after 24 h, indicating a significant neurodegeneration.

Assay [5] concerns rat mesencephalic dopaminergic neurones. Nature of the assay: Treatment of dopaminergic neurones after MPP+ exposure (survival, neurites). Type of assay: cell-based. The conditions noted are these: treatment 0.03 nM; MPP+ 2 μM; MPP+ alone 76 ± 4. The source says:
Smilagenin and sarsasapogenin also reverse the neurodegeneration caused by exposure to the neurotoxin 1-methyl-4-phenylpyridinium (MPP^+) in rat mesencephalic dopaminergic neurones; a model of Parkinson's disease in vitro.
Glial cell line-derived neurotrophic factor (GDNF) and brain-derived neurotrophic factor (BDNF), molecules that are involved in neuronal growth, and 17β-oestradiol were used as positive controls. Treatment with smilagenin and sarsasapogenin produced a significant increase in the neuronal survival compared to neurones exposed to MPP^+ alone (Table 8).
Exposure to MPP^+ caused not only a significant decrease in dopaminergic number but also in the percentage of neurites.

The test system of assay [6] is rat primary spinal motor neurones. Nature of the assay: Glutamate-induced neurodegeneration in spinal motor neurones (LDH). The conditions noted are these: control 100 ± 1. In kind it is cell-based. As for the experimental part:
The objective of this study was to examine the effects of sarsasapogenin and smilagenin on the survival of rat primary spinal motor neurones exposed to glutamate, which is known to induce neurodegeneration in this model of motor neurodegeneration.
Rat motor neurones were prepared according to the method described by (Martinou et al, Neuron, 8, 737-744, 1992). On day 10, medium was removed and the cultures were exposed to glutamate (4 microM) for 10 min at 37° C. in defined medium. After the glutamate exposure, cultures were washed with Dulbecco modified Eagle medium at 37° C. then placed in fresh culture medium containing test compounds. After 48 h, the extent of spinal motor neurone degeneration was determined by measuring the amount of lactate dehydrogenase (LDH) released into the culture medium as above.

Assay [7] relates to rat primary cortical neurones. Nature of the assay: Neurite outgrowth in rat primary cortical neurones. Type of assay: cell-based. The conditions noted are these: for Number of neurones displaying neurites, Mean ± s.e.m (%): control 47 ± 2; for Neurite length measured using optical micrometry, Mean ± s.e.m (%): control 100 ± 4. The source says: Neurodegenerative disorders are characterised by a progressive loss of neurones and degradation of neuronal processes (neurites). Agents that induce neurite outgrowth may promote the formation of new connections between neurones and ameliorate the symptoms of neurodegenerative conditions (Katzman et al, Faseb J., 5, 278-286, 1991).

Where [8] appears, read: 3 nM after glutamate 100 μM 10 min.
The mark [9] stands for this setting: 30 nM after glutamate 100 μM 10 min.

As to `C[C@H]1CC[C@@]2(OC1)O[C@H]1C[C@H]3[C@@H]4CC[C@@H]5C[C@H](O)CC[C@]5(C)[C@H]4CC[C@]3(C)[C@H]1[C@@H]2C` [episarsasapogenin], in assay [1], the “Prevention of glutamate-induced neurodegeneration, Mean ± s.e.m (%)” value (shortened to “Prevention … (%)”) was determined as 88 ± 3%. In addition, the “Learning and memory Step through test Error No” value in assay [2] is 1.50 ± 1.18*. In assay [3], the M receptor density is given as 869 ± 104* fmol/mg/protein.
Take `C[C@@H]1CC[C@@]2(OC1)O[C@H]1C[C@H]3[C@@H]4CC[C@@H]5CC(=O)CC[C@]5(C)[C@H]4CC[C@]3(C)[C@H]1[C@@H]2C` [Smilagenone, smilagenone]: the “Cortical neurones previously exposed to glutamate, Mean ± s.e.m (%)” value (“Cortical neurones previously exposed … (%)” below) was 119 ± 7% in assay [4] (setting [8]) and 119 ± 4% in assay [4] (setting [9]).
Turning to `CCOC(=O)OC1CCC2(C)C(CCC3C2CCC2(C)C3CC3OC4(CCC(C)CO4)C(C)C32)C1` (centres unmarked) [sarsasapogenin cathylate], the “Learning and memory Step through test Error No” value in assay [2] is 1.36 ± 1.03*. Moreover, the M receptor density in assay [3] is 916 ± 158* fmol/mg/protein.
As for `C[C@@H]1CC[C@@]2(OC1)O[C@H]1C[C@H]3[C@@H]4CC=C5C[C@@H](O)CC[C@]5(C)[C@H]4CC[C@]3(C)[C@H]1[C@@H]2C` [diosgenin, reference compound], the “Prevention … (%)” value in assay [1] is recorded as 72 ± 4%. In addition, the “Learning and memory Step through test Error No” value in assay [2] was found to be 3.75 ± 1.49. Besides, the M receptor density in assay [3] was found to be 770 ± 68 fmol/mg/protein. In addition, the “Cortical neurones previously exposed … (%)” value in assay [4] (setting [9]) stood at 49 ± 6%.
For `CC(C)CCC1OC2C[C@H]3[C@@H]4CC[C@@H]5C[C@@H](O)CC[C@]5(C)[C@H]4CC[C@]3(C)[C@H]2[C@@H]1C` (stereo partly drawn) [16,22-epoxycoprostan-3β-ol], the results for the “Cortical neurones previously exposed … (%)” value in assay [4] (setting [8]) and in assay [4] (setting [9]) were 114 ± 7% and 134 ± 5%, respectively.
Regarding `C[C@@H]1CC[C@@]2(OC1)O[C@H]1C[C@H]3[C@@H]4CC[C@@H]5C[C@H](O)CC[C@]5(C)[C@H]4CC[C@]3(C)[C@H]1[C@@H]2C` [epismilagenin], the “Prevention … (%)” value in assay [1] came to 79 ± 2%. For the same molecule, the “Learning and memory Step through test Error No” value in assay [2] is recorded as 1.73 ± 0.91*. Besides, in assay [3], the M receptor density is 877 ± 90* fmol/mg/protein.
As to `CC1CCC2(OC1)OC1CC3C4CCC5CC(OC(=O)CN)CCC5(C)C4CCC3(C)C1C2C.Cl` (centres unmarked) [Smilagenin glycinate hydrochloride, smilagenin glycinate hydrochloride], the “Cortical neurones previously exposed … (%)” value in assay [4] (setting [8]) was determined as 117 ± 4%; in assay [4] (setting [9]) it was 141 ± 6%.
Consider `CCOC(=O)CCC(=O)OC1CCC2(C)C(CCC3C2CCC2(C)C3CC3OC4(CCC(C)CO4)C(C)C32)C1` (centres unmarked) [Episarsasapogenin ethylsuccinate, episarsasapogenin ethylsuccinate, reference compound], for which, in assay [2], the “Learning and memory Step through test Error No” value is 3.73 ± 1.35. Moreover, the M receptor density in assay [3] is listed as 774 ± 79 fmol/mg/protein.
Regarding `CC(C)CCC[C@@H](C)[C@H]1CC[C@H]2[C@@H]3CC[C@@H]4C[C@@H](O)CC[C@]4(C)[C@H]3CC[C@]12C` [Coprosterol, coprosterol], the “Cortical neurones previously exposed … (%)” value is reported as 126 ± 5% in assay [4] (setting [8]) and 116 ± 4% in assay [4] (setting [9]).
Take `C[C@]12CC[C@@H]3c4ccc(O)cc4CC[C@H]3[C@@H]1CC[C@@H]2O` [17β-oestradiol, reference compound]: the “Dopaminergic neurones after MPP+ exposure (survival), Mean ± s.e.m (%)” value in assay [5] is recorded as 106 + 5%. Also, the “Glutamate-induced neurodegeneration in spinal motor neurones, Mean ± s.e.m (%)” value in assay [6] (300 nM for 48 h after glutamate 4 microM 10 min) is 116 + 6%. The “Number of neurones displaying neurites, Mean ± s.e.m (%)” value in assay [7] (0.3 pM) was 48 ± 2%; in assay [7] (3 pM), 60 ± 2%; in assay [7] (30 pM), 59 ± 2%. Also, the “Neurite length measured using optical micrometry, Mean ± s.e.m (%)” value in assay [7] (0.3 pM) came to 154 ± 5%; in assay [7] (3 pM) it was 163 ± 4%. The “Cortical neurones previously exposed … (%)” value is reported as 69 ± 2% in assay [4] (setting [8]) and 75 ± 5% in assay [4] (setting [9]).

B1: BDNF: brain-derived neurotrophic factor, positive control (protein, UniProt P23560 19-247, looked up)
Neurotrophic factor BDNF …: APMKEANIRGQGGLAYPGVRTHGTLESVNGPKAGSRGLTSLADTFEHVIEELLDEDQKVRPNEENNKDADLYTSRVMLSSQVPLEPPLLFLLEEYKNYLDAANMSMRVRRHSDPARRGELSVCDSISEWVTAADKKTAVDMSGGTVTVLEKVPVSKGQLKQYFYETKCNPMGYTKEGCRGIDKRHWNSQCRTTQSYVRALTMDSKKRIGWRFIRIDTSCVCTLTIKRGR
B1: in assay [6] (3 nM for 48 h after glutamate 4 microM 10 min), the “Glutamate-induced neurodegeneration in spinal motor neurones, Mean ± s.e.m (%)” value was 148 ± 8%.
